According to BindingDB's records for doi:10.7270/Q20863RR (Nmmlsc, 2010):

Target: T1, Regulator of G-protein signaling 7 (Homo sapiens, UniProt P49802)
T1 sequence (P49802 whole entry): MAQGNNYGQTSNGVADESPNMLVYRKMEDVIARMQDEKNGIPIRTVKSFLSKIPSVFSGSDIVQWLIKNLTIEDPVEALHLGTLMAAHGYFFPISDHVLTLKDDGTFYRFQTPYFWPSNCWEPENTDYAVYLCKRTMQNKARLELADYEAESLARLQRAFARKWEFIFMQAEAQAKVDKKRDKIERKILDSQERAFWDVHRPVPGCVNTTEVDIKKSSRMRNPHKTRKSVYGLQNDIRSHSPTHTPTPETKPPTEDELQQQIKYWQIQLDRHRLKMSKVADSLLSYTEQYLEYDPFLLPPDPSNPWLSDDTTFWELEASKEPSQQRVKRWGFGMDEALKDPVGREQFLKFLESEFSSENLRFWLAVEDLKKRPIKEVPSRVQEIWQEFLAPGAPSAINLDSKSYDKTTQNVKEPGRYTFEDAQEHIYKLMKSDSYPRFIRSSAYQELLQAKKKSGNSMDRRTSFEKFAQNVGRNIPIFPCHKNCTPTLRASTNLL
Assay: RGS7-Galphao binding modulators, SAR follow-up, biochemical, multiplexed bead flow cytometry, SAR compounds (AID 2296)

Ki: 120 nM
SMILES: NS(=O)(=O)c1ccc(N=NCc2ccc(O)c(O)c2O)c([N+](=O)[O-])c1 [4-[[(E)-(2,3-dihydroxy-4-oxo-1-cyclohexa-2,5-dienylidene)methyl]hydrazo]-3-nitrobenzenesulfonamide]
